Data on two compounds can be found in patent publication US9579406B2, “Phospholipid ether analogs as agents for detecting and locating cancer, and methods thereof” (Cellectar, Inc., priority 2004, dated 2017).

The test system of data set [1] is PC3 human prostate cancer. In words: Radiotherapy study in PC-3 SCID mouse xenograft model. Type of data set: in vivo. The conditions noted are these: after treatment. As to the method:
PC-3 (human prostate cancer, from ATCC) are maintained in Ham's F-12K media supplemented with 10% fetal bovine serum. Tumor cell suspension (1×10^6 cells in phosphate-buffered saline) is injected s.c. into the right flank of male SCID mice (6-8 weeks, C.B-17/IcrHsd-Prkcd^scid, Harlan). Animals are given free access to food and water, tumor growth and animal weight are monitored. Upon reaching 4-5 mm in diameter, mice will be divided into groups of 6 for therapy study.
Single injection of SF404A at Day 0
Groups: • (1) 5 study groups: 4 treatment+1 control • (2) N=6 per group • (3) 4 acute dose levels: 50, 150, 250 and 500 μCi per mouse • (4) Control group dosed with equivalent mass amount of NM404: 0 μCi per mouse (“cold” NM404)

For a further data set, the system named is spontaneous lung tumor. In words: Bioscan imaging of spontaneous lung tumor. The format is in vivo, Apc^Min mouse. Conditions: 4 days post injection. The source says:
FIG. 13. Bioscan image (A) obtained 4 days post ^125I-NM404 injection into an Apc^Min mouse.
(§1) NM404 has now been evaluated in 27 animal tumor models, including several lung, and it is clear that once the agent enters tumor cells, it reaches a metabolic dead end and becomes trapped. […] NM404 is also retained in spontaneous murine lung tumors (FIG. 13). Using ^125I-labeled NM404, the inventors have been able to image mammary and prostate tumors in mice in excess of 60 days. […] Imaging and tissue distribution studies performed in mouse models aimed at determining the uptake characteristics in a wide variety of tumor models are summarized in Table 2.

For data set [2], the system named is Walker-256 carcinosarcoma. The data set is described as follows: Tissue distribution of radioactivity in rats bearing Walker-256 carcinosarcoma. The format is in vivo, rat.
Data set [3] relates to human PC-3 prostate tumor xenografts. In words: Scintigraphy and tissue distribution in SCID mice bearing human PC-3 prostate tumor xenografts. Type of data set: in vivo. The conditions noted are these: day 5. The source says: Tumor uptake, however, continued to increase up until day 5 when it reached 18% injected dose per gram of tumor. […] Tumor to background tissue ratios exceeded 4, 6.8, 23, and 9 in blood, liver, muscle, and prostate, respectively, 3 days after injection and continued to improve at 5 and 8 days. Again, although thyroid levels ranged from 26 to 54% injected dose per gram of tissue, these levels are actually quite low and represent an extremely small percentage of the injected dose when the exceedingly small mass of the organ is considered and the data are presented on a percent administered dose per organ basis.
Background: A xenograft is tissue or cells of one species grown in another, often human tumour cells in immunodeficient mice.

Data set [4] is described as follows: Acute GLP toxicology, single dose, 14 days observation, rabbits. Type of data set: in vivo. As to the method:
Formal toxicology studies of NM404 in male rats and rabbits were performed at the Toxicology Research Center of the State University of New York at Buffalo under the direction of Dr. Paul Kostyniak. Drug vehicle and drug product were provided to Dr. Kostyniak by Dr. Raymond Counsell of the University of Michigan for testing as described in the appended synopses of Study 27 and Study 28. […] Human safety studies of unlabeled NM404 were initiated in normal male humans at a mass of 10 times the anticipated imaging dose and about 21 times the anticipated therapy dose. […] This toxicology study was performed under GLP conditions.
Subsequently, the researchers at the University of Wisconsin initiated a toxicology study of unlabeled NM404 in female rats and rabbits (Study 31 and Study 32) at the Toxicology Research Center at SUNY-Buffalo in order to expand the patient population to be studied in the NSCLC Phase 1 clinical trial. […] Human safety studies of unlabeled NM404 were initiated in normal female humans at a mass of 10 times the initially anticipated imaging dose and about 21 times the anticipated therapy dose. […] This toxicology study was performed under GLP conditions.

Data set [5] can be described thus: MIRD extrapolation of rat tissue distribution data to permissible human dose. Further details: species or system human (from rat data). The source says:
Accordingly the inventors have conducted the preliminary pharmacokinetic studies in human lung cancer patients at 1 mCi. Similar extrapolative calculation of the dosimetry for ^124I-NM404 afforded a similar 2 mCi dose level again based on projected dosimetry to the adrenals and bladder wall. Preliminary human data (5 patients), however, indicate very little uptake and retention of the agent into any abdominal organ (including the bladder and adrenals) with the exception of the liver which returns to background levels within 11 days.
Dosing of radioiodinated ^124I NM404 will be based on MIRD extrapolation of the iodine-131 dosimetry data derived from this ongoing study. The ^131I-NM404 dose is currently calculated as follows: Animal biodistribution data is used to determine the percentage of injected dose/organ at varying time points. These animal data are extrapolated to man by means of MIRD formalism (MIRDOSE PC v3.1) using standard conversion factors for differences in organ mass and anatomy between rat and standard man, providing predicted human organ doses; Based on these predicted doses, the permissible mCi dose to be injected into humans is determined using the maximal doses legally permitted by RDRC regulations for specific human tissue as defined in the Federal Register (21CFR Part 361.1) e.g. whole body, blood, blood forming tissues, eye lens, gonads—3 rem/dose; any other tissue—5 rem/dose. This approach was previously used to bring both NM324 and NM404 to clinical use, resulting in a calculated dose of 1 mCi.

Data set [6] can be described thus: Blood plasma kinetics in rats. Type of data set: in vivo. The conditions noted are these: rat.
The subject of data set [7] is benign intestinal adenomas, preneoplastic hyperplasias. In words: Selectivity for benign and preneoplastic lesions. The format is in vivo, mouse. The source says:
(§2) Although tumor retention can be explained by a lack of metabolic phospholipase enzymes in the tumor cell membranes, the exact mechanism of tumor cell uptake is unknown. […] The inventors are currently evaluating the selectivity of NM404 in a unique mouse tumor model developed at Wisconsin, wherein both preneoplastic hyperplasias and malignant adenocarcinomas form spontaneously in the mammary gland. […] If this initial observation is validated, then via genomic and or proteomic analysis the inventors may be able to identify a key genetic difference between malignant tumors and their non malignant predecessor cells. This could identify a completely new molecular therapeutic target that may be universal for all types of cancer.

The next data set relates to Colon LS-180. The data set is described as follows: Tumor models examined with NM404 (Table 2). Type of data set: in vivo, Nude Mouse. Conditions: Adenocarcinoma.
Description: as §1, §2

In the next data set the test system is Adrenal H-295. In words: Tumor models examined with NM404 (Table 2). Conditions: Adenocarcinoma. The format is in vivo, SCID Mouse.
Description: as §1, §2

The next data set deals with Mammary MCF-7. In words: Tumor models examined with NM404 (Table 2). The format is in vivo, Rat. Conditions: Adenocarcinoma.
Description: as §1, §2

The test system of a further data set is Prostate MatLyLu. In words: Tumor models examined with NM404 (Table 2). The format is in vivo, Rat. Conditions: Adenocarcinoma.
Description: as §1, §2

Another data set concerns Walker-256. The data set is described as follows: Tumor models examined with NM404 (Table 2). The format is in vivo, Rat. Conditions: Carcinosarcoma.
Description: as §1, §2

A further data set relates to SCC1 and 6. In words: Tumor models examined with NM404 (Table 2). The format is in vivo, Nude mouse xenograft. Conditions: Squamous cell carcinoma.
Description: as §1, §2

Read-outs that look alike come from different tables or passages of the source.

For the compound `C[N+](C)(C)CCOP(=O)([O-])OCCCCCCCCCCCCCCCCCCc1ccc([125I])cc1` [Compound I-125-NM404], in [1], the “time at which treatment and control tumor growth curves separate” value is 4-5 weeks. Also, the “uptake into spontaneous lung tumor” value with spontaneous lung tumor is listed as “intense uptake of NM404 into the tumor”.
As to `C[N+](C)(C)CCOP(=O)([O-])OCCCCCCCCCCCCCCCCCCc1ccc(I)cc1` [NM-404, 18-(4-iodophenyl)-octadecylphosphocholine], in [2] (48 hours after administration), the “radioactivity in the tumor (peak)” value is given as 1.14±0.01 % of ID/g. Besides, in data set [2] (120 hours), the blood levels is on record as 0.6±0.1 % of ID/g. Also, in data set [2] (after administration), the “time of peak tumor radioactivity” value came out at 48 h. The tumor uptake in data set [3] is recorded as 18 % injected dose per gram of tumor. Besides, the toxic effects entry is listed as “no significant toxic effects were noted” in data set [4] (female rabbits, 0.04 mg/kg (Study 32)) and “no significant toxic effects were noted” in [4] (male rabbits, 4 mg/kg (Study 28)). The adverse effects result in data set [4] (male and female rabbits) is reported as “no adverse effects attributable to the test article were noted”. Further, the acute toxicity entry in data set [4] (unlabeled, 1200 times the anticipated imaging mass dose) is on record as “no acute toxicities were found”. Also, the “calculated dose for clinical use” value in [5] is listed as 1 mCi. In [5] (new animal data), the “5 rad dose to adrenals” value is given as 2.2 mCi. Moreover, in data set [5] (new animal data), the “5 rad testes dose” value is 2.1 mCi. In addition, the half-life (commonly the time in which the quantity being followed falls by half) was 4.86 h in data set [6] (read-out: distribution phase half life (converted)) and about 209 h in data set [6] (read-out: elimination half life time in plasma (converted)). Further, the “uptake and retention in preneoplastic lesions” value in [7] (mammary gland model, preliminary) was “not taken up and retained in preneoplastic lesions”. Besides, the “localization in benign intestinal adenomas” value in [7] (mouse, in vivo) is recorded as “does not localize in benign intestinal adenomas (polyps)”. For the same compound, the “NM404 Tumor Localization” value in the data set on Colon LS-180 is reported as “Yes (Localization defined as >5% injected dose per gram tumor basis based on tissue distribution data)”; with Adrenal H-295 it was “Yes (Localization defined as >5% injected dose per gram tumor basis based on tissue distribution data)”; in the data set with Mammary MCF-7 it was “Yes (Localization defined as >5% injected dose per gram tumor basis based on tissue distribution data)”; in the data set on Prostate MatLyLu, “Yes (Localization defined as >5% injected dose per gram tumor basis based on tissue distribution data)”; in the data set with Walker-256, “Yes (Localization defined as >5% injected dose per gram tumor basis based on tissue distribution data)”; with SCC1 and 6, “Yes (Localization defined as >5% injected dose per gram tumor basis based on tissue distribution data)”.
